This passage reports Kd, Activity and inhibition results from ChEMBL document CHEMBL5338783, “Discovery of an Anti-TNF-α 9-mer Peptide from a T7 Phage Display Library for the Treatment of Inflammatory Bowel Disease” (J Med Chem, 2023).

One series deals with Tumor necrosis factor (Homo sapiens, UniProt P01375). In words: Binding affinity to TNF-alpha (unknown origin) assessed as dissociation constant by SPR analysis.
Series [1] concerns BMDM. Briefly: Antiinflammatory activity in mouse BMDM cells assessed as decrease in LPS-stimulated IFN-alpha mRNA level incubated for 3 hrs by RT-qPCR analysis. The class given is functional, cell-based. The settings on record: dose 25-100 µM.
For series [2], the target named is T1, Tumor necrosis factor receptor superfamily member 1B (Homo sapiens) (UniProt P20333).
T1 sequence (whole entry): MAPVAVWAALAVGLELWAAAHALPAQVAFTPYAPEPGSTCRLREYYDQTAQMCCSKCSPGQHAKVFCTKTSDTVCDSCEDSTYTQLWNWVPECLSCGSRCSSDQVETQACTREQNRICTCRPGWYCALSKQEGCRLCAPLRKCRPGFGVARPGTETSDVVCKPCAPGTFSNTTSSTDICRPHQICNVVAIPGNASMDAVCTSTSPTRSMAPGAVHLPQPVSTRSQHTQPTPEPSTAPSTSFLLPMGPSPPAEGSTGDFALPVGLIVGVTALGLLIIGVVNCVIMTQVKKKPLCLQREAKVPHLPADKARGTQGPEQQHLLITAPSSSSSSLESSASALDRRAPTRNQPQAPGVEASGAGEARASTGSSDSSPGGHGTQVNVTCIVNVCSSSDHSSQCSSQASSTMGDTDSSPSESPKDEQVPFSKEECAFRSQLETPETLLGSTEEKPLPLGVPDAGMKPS
Briefly: Inhibition of TNF-alpha (unknown origin) binding to TNFR2 by SPR analysis.

The target of series [3] is T1, Tumor necrosis factor receptor superfamily member 1B (Homo sapiens). In words: Binding affinity to TNFR2 (unknown origin) at 488.3 to 500 uM incubated for 10 mins by MST assay. The settings on record: dose 488.3-500 µM.
For series [4], the system named is RAW264.7. In words: Antiinflammatory activity in LPS-stimulated mouse RAW264.7 cells assessed as inhibition of JNK1/2 phosphorylation incubated for 3 hrs by Western blot analysis. It is filed as functional, cell-based. Particulars: dose 25-100 µM.
Series [5] concerns RAW264.7. In words: Antiinflammatory activity in LPS-stimulated mouse RAW264.7 cells assessed as inhibition of p65 phosphorylation incubated for 3 hrs by Western blot analysis. It is filed as functional, cell-based. Particulars: dose 25-100 µM.
In series [6] the test system is RAW264.7. In words: Antiinflammatory activity in mouse RAW264.7 cells assessed as decrease in LPS-stimulated TNF-alpha mRNA level at 25 to 100 uM incubated for 3 hrs by RT-qPCR analysis. It is filed as functional, cell-based. The settings on record: dose 25-100 µM.
In series [7] the test system is Mus musculus. Briefly: Antiinflammatory activity against DSS-induced acute colitis in C57BL/6 mouse model assessed as decrease in ERK1/2 phosphorylation in colon tissue administered intraperitoneally daily for 7 days by Western blot analysis. The class given is functional, organism-based. The settings on record: dose 0.5-1 mg/kg, route ip, time 7.0 day.
Series [8] deals with BMDM. In words: Antiinflammatory activity in mouse BMDM cells assessed as decrease in LPS-stimulated IL-1beta mRNA level incubated for 3 hrs by RT-qPCR analysis. The settings on record: dose 25-100 µM. The class given is functional, cell-based.
Series [9] deals with Mus musculus. In words: Anti-colitis activity against DSS-induced acute colitis in C57BL/6 mouse model assessed as reduction in goblet cell depletion in colon at 0.5 to 1 mg/kg, ip daily for 11 days by H and E staining based analysis. It is filed as functional, organism-based. Particulars: dose 0.5-1 mg/kg, time 11.0 day.
Series [10] deals with BMDM. Briefly: Antiinflammatory activity in mouse BMDM cells assessed as decrease in LPS-stimulated IL-6 mRNA level incubated for 3 hrs by RT-qPCR analysis. It is filed as functional, cell-based. Particulars: dose 25-100 µM.
In series [11] the test system is Mus musculus. In words: Anti-colitis activity against DSS-induced acute colitis in C57BL/6 mouse model assessed as decrease in disease activity index at 1 mg/kg, ip daily for 7 days. The class given is functional. Particulars: time 7 day.
Series [12] deals with RAW264.7. In words: Antiinflammatory activity in mouse RAW264.7 cells assessed as decrease in LPS-stimulated IL-1beta mRNA level incubated for 3 hrs by RT-qPCR analysis. The class given is functional, cell-based. The settings on record: dose 25-100 µM.
The subject of series [13] is Mus musculus. Briefly: Anti-colitis activity against DSS-induced acute colitis in C57BL/6 mouse model assessed as reduction in colonic tissue damage at 0.5 to 1 mg/kg, ip daily for 7 days by H and E staining based analysis. It is filed as functional, organism-based. Particulars: dose 0.5-1 mg/kg, time 7.0 day.
For series [14], the target named is T2, Tumor necrosis factor receptor superfamily member 1A (Homo sapiens) (UniProt P19438).
T2 sequence (whole entry): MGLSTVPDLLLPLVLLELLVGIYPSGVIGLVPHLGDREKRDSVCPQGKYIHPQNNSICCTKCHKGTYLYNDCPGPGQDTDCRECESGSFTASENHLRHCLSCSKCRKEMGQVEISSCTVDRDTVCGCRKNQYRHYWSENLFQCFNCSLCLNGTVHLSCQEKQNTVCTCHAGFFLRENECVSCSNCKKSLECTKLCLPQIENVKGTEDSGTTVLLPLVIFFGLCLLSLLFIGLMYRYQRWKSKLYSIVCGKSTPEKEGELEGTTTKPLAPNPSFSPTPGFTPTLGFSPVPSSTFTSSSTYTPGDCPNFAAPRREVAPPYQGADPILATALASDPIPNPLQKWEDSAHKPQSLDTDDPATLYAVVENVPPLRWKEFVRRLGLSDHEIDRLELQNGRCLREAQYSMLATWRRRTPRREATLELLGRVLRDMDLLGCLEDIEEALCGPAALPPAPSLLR
Briefly: Binding affinity to TNFR1 (unknown origin) at 488.3 to 500 uM incubated for 10 mins by MST assay. Particulars: dose 488.3-500 µM.

For series [15], the system named is Mus musculus. Briefly: Antiinflammatory activity against DSS-induced acute colitis in C57BL/6 mouse model assessed as decrease in p38 phosphorylation in colon tissue administered intraperitoneally daily for 7 days by Western blot analysis. The class given is functional, organism-based. The settings on record: dose 0.5-1 mg/kg, route ip, time 7.0 day.
The subject of series [16] is BMDM. In words: Antiinflammatory activity in LPS-stimulated mouse BMDM cells assessed as inhibition of MAPK signalling pathway incubated for 3 hrs by Western blot analysis. The class given is functional, cell-based. The settings on record: dose 25-100 µM.
Series [17] can be described thus: Toxicity in DSS-induced acute colitis in C57BL/6 mouse model assessed as animal survival at 0.5 to 1 mg/kg, ip daily for 11 days. It is filed as organism-based. Particulars: in vivo, 264 h, dose 0.5-1 mg/kg, time 11 day.
The subject of series [18] is Mus musculus. In words: Antiinflammatory activity against DSS-induced acute colitis in C57BL/6 mouse model assessed as decrease in p65 phosphorylation in colon tissue administered intraperitoneally daily for 7 days by Western blot analysis. The settings on record: dose 0.5-1 mg/kg, route ip, time 7.0 day. It is filed as functional, organism-based.

Calls of active or inactive are those of the source. No cut-off for these calls is given here. Peptide text beside a SMILES is read from it.

Tumor necrosis factor, sequence (P01375 whole entry): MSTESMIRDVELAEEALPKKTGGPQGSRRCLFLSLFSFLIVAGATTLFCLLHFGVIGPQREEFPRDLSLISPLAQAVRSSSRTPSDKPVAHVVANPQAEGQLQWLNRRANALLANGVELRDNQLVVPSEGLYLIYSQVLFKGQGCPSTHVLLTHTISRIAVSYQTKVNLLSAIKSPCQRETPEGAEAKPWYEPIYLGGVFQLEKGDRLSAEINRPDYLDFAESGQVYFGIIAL

For the compound `C[C@H](N)C(=O)N[C@@H](CS)C(=O)N[C@@H](Cc1cnc[nH]1)C(=O)N[C@@H](C)C(=O)N[C@@H](Cc1c[nH]c2ccccc12)C(=O)N[C@@H](C)C(=O)N1CCC[C@H]1C(=O)N[C@H](C(=O)N[C@@H](CCCNC(=N)N)C(=O)O)[C@@H](C)O` (H-ACHAWAPTR-OH), at Tumor necrosis factor, the Kd was 6 µM. The Activity result in the series on BMDM [1], in the series with RAW264.7 [4], in the series on RAW264.7 [5], in the series on RAW264.7 [6], in the series on Mus musculus [7] and with BMDM [8] was “Dose-Dependent Effect” in each case. The Activity result in the series with BMDM [10] was “Dose-Dependent Effect”; in the series on Mus musculus [11] it was -1.25; in the series on Mus musculus [15], “Dose-Dependent Effect”; in the series with BMDM [16] it was “Dose-Dependent Effect”; in series [17], “Non-Toxic”; in the series with Mus musculus [18], “Dose-Dependent Effect”. The inhibition entry in series [2] is “Active”. In addition, the result in [3] and in series [14] was inactive. Further, the outcome with Mus musculus [9], in the series with RAW264.7 [12] and in the series on Mus musculus [13] was Active.
